Earlier results on one molecule are cited in patent US20170189326A1, “Topical Antiaging Polyphenol Compositions” (priority 2015, published 2017).

The structures appear in SMILES notation.

For this data set, the system named is dimethylnitrosamine-induced hepatic injury. To be noted: oral administration, rats.

On to `COc1cc(/C=C/C(=O)CC(=O)/C=C/c2ccc(O)c(OC)c2)ccc1O` [curcumin], for which the “protection against dimethylnitrosamine-induced hepatic injury” value is “protected”.
